US10391070B2, “Compositions and methods for treating neurological diseases or injury” (MUSC FOUNDATION FOR RESEARCH DEVELOPMENT, priority 2012, dated 2019)

Tests used:
PTZ-induced seizures = assay: Subcutaneous PTZ seizure threshold test; type: in vivo, mouse; conditions: mice, 100 mg/kg i.p. pretreatment, PTZ 85 mg/kg s.c.
Procedure: (§1) Mouse studies were performed by NIH Anticonvulsant Screening Program at the National Institute of Neurological Disorders and Stroke (Stables and Kupferberg, 1997) according to the established NIH experimental procedures outlined below. Compounds were delivered into mice by i.p. injection at a dose of 100 mg/kg in sterile 5% DMSO, 95% Neobee (Josey et al., 2013). One of four methods for seizure induction was subsequently administered to mice at 0.25, 0.5, 1, 2 and 4 h after treatment with compound. (1) Subcutaneous PTZ seizure threshold test. PTZ was administered at a concentration of 85 mg/kg, into the loose fold of skin in the midline of the neck. […] (2) Maximal electroshock test. 60 Hz of 50 mA alternating current was delivered for 0.2 s by corneal electrodes. Mice were considered protected from seizures when the hindlimb tonic extensor was absent (White et al., 1995). (3) Minimal clonic seizure (6 Hz) test. 6 Hz of 32 mA or 44 mA alternating current was delivered for 3 s by corneal electrodes to elicit a psychomotor seizure. Mice were considered protected from seizures when the automatistic behaviors were absent (Barton et al., 2001). (4) Corneal kindled mouse model. Mice were kindled electrically with a 3 s stimulation, 8 mA, 60 Hz, and corneal electrodes to a criterion of 10 consecutive Stage 5 seizures (facial clonus and head nodding progressing to forelimb clonus, and finally rearing and falling accompanied by a generalized clonic seizure as described by Racine, 1972). Animals generally reach Stage 5 after twice daily stimulation for 8 days. With continued stimulation once a day, animals usually progressed to a reproducible Stage 5 after 10-14 additional days. At least 72 hours after the mice were kindled, the test substance was administered i.p. and each animal was given the electrical stimulus indicated above. […] Treated animals not displaying a Stage 4 or 5 seizure were considered protected.

[1] = test system: minimal clonic seizures (6 Hz); assay: Minimal clonic seizure (6 Hz) test; type: in vivo, mouse; conditions: mice; for animals protected/animals tested, 0.25 h / animals protected/animals tested, 0.5 h / animals protected/animals tested, 1.0 h / animals protected/animals tested, 2.0 h / animals protected/animals tested, 4.0 h: 6 Hz
Procedure: as §1
6 Hz of 32 mA or 44 mA alternating current was delivered for 3 s by corneal electrodes to elicit a psychomotor seizure. Mice were considered protected from seizures when the automatistic behaviors were absent (Barton et al., 2001). Pre-administration of test compounds (100 mg/kg) to mice via i.p. injection protects against minimal clonic seizures (6 Hz). The data for each treatment is represented as the number of animals protected/number of animals tested.
The minimal clonic seizure (6 Hz) test is generally used to assess a agent's efficacy against electrically-induced seizures but uses a lower frequency (6 Hz) and longer duration of stimulation (3s) shock. Test compounds are pre-administered to mice via i.p. injection. Individual mice are challenged with sufficient current delivered through corneal electrodes to elicit a psychomotor seizure in 97% of animals (32 mA for 3s). Untreated mice will display seizures characterized by a minimal clonic phase followed by stereotyped, automatistic behaviors described originally as being similar to the aura of human patients with partial seizures. Animals not displaying this behavior are considered protected. Animals may also be evaluated using stimulation of 22 or 44 mA.

HT22 cells = assay: t-BuOOH toxicity protection (MTS cell viability); type: cell-based, mouse; conditions: HT22, 50 μM t-BuOOH
Procedure: Cell viability was assessed by the ability of the viable cells to metabolize 3-(4,5-dimethylthiazol-2-yl)-5-(3-carboxymethoxyphenyl)-2(4-sulfophenyl)2-H-tetrazolium, inner salt (MTS), as described previously (Cory et al., 1991). The metabolism of tetrazolium salts is often used to measure cellular proliferation, but in the system used here, it has been previously shown to correlate well with cell viability as determined by trypan blue exclusion and colony-forming assays (Davis and Maher, 1994). Briefly, HT-22 cells were seeded onto 96-well plates at 5.0×10^3 cells per well in 75 μL of medium and maintained at 37° C. in 5% CO2 overnight prior to the initiation of experimental treatments. For glutamate toxicity testing, cells were subsequently treated with 25 μL of medium containing glutamate (monosodium glutamate, Sigma, 1 M stock concentration in media, to achieve a final concentration of 10 mM) plus inhibitors (stock in DMSO) and maintained at 37° C. in 5% CO2. For t-BuOOH toxicity testing, cells were subsequently treated with 25 μL of medium containing t-BuOOH (Sigma, 10 mM stock concentration, to achieve a final concentration of 50 μM) plus inhibitors (stock in DMSO) and maintained at 37° C. in 5% CO2 for 3 hours, after which the media was removed, cells washed gently with HBSS, the media replaced with standard culture media, and the cells returned to incubation at 37° C. in 5% CO2. For both glutamate and t-BuOOH treatments, 10 μl of MTS solution was added to each well 24 hrs after initial treatment, and the cells were maintained in growth medium for 2 h at 37° C. Absorbance at 490 nm was subsequently measured by a SpectraMax 190 plate reader (Molecular Devices). The growth medium without cells in the presence of MTS solution was used as solution background and untreated cells were considered the controls. Cell viability was calculated as a percentage compared with untreated controls. EC50 determinations were based on 12-point titrations using GraphPad Prism, and each experiment was repeated at least four times. Morphology of HT22 cells following treatments was determined by phase-contrast microscopy. Digital images of cells grown on cell culture plates were captured at 10× magnification.
In light of the findings that the protection against glutamate induced cell death provided by VK2, 2q, and 2j, are at least partially mediated by the attenuation of the increased production of endogenous ROS, the inventors also examined the effects of these compounds on tert-butylhydroperoxide (t-BuOOH) induced cell death. t-BuOOH is a short chain analog of the lipid hydroperoxides formed from peroxidation reactions during oxidative stress that is cytotoxic to cells (Lemasters and Nieminen, 1997). […] It is well documented that cells undergo rapid and extensive fragmentation in the early stages of cell death (Bossy-Wetzel et al., 2003; Frank et al., 2001; Breckenridge et al., 2008; Jagasia et al., 2005; Lee et al., 2004). Recent studies have shown that mitochondrial fragmentation is regulated by the translocation of dynamin-related protein 1 (Drp1) from the cytosol to the mitochondria, where it assembles to form spirals at division sites (Smirnova et al., 2001). Although the exact molecular mechanism is still not well studied, the activity of Drp1 is regulated by the phosphorylation and dephosphorylation of specific serine residues by protein kinases and phosphatases such as calcineurin and the PGAM5 (Wang et al., 2012; Chang et al., 2007). […]

| Molecule | effect on PTZ-induced seizures (PTZ-induced seizures) | animals protected/animals tested, 0.25 h ([1]; 100 mg/kg i.p., 32 mA) | animals protected/animals tested, 0.5 h ([1]; 100 mg/kg i.p., 32 mA) | animals protected/animals tested, 1.0 h ([1]; 100 mg/kg i.p., 32 mA) | animals protected/animals tested, 2.0 h ([1]; 100 mg/kg i.p., 32 mA) | animals protected/animals tested, 4.0 h ([1]; 100 mg/kg i.p., 32 mA) | protection against 6 Hz seizures ([1]; 100 mg/kg i.p., 32 mA, 0.25 h) | anticonvulsant activity in minimal clonic (6 Hz) test ([1]; 32 mA) | protection in 6 Hz model at 44 mA ([1]; 44 mA) | protection from t-BuOOH induced cell death (HT22 cells) |
| --- | --- | --- | --- | --- | --- | --- | --- | --- | --- | --- |
| C#CCNC1=CC(=O)c2ccccc2C1=O [Compound 2h, 2-(prop-2-yn-1-ylamino)naphthalene-1,4-dione] | had no effect on PTZ-induced seizures in mice | 4/4 | 2/4 | 1/4 | 1/4 | 0/4 | 100% | good anticonvulsant activity | did not result in any protection | – |
| O=C1C=C(NCc2ccccc2)C(=O)c2ccccc21 [Compound 2j, 2-(benzylamino)naphthalene-1,4-dione] | had no effect on PTZ-induced seizures in mice | 0/4 | 0/4 | 1/4 | 1/4 | 1/4 | – | good anticonvulsant activity | – | capable of protecting HT22 cells from t-BuOOH |
| O=C1C=C(NCc2cccc(Cl)c2)C(=O)c2ccccc21 [Compound 2q, 2-((3-chlorobenzyl)amino)naphthalene-1,4-dione] | had no effect on PTZ-induced seizures in mice | 1/4 | 0/4 | 1/4 | 0/4 | 0/4 | – | good anticonvulsant activity | – | capable of protecting HT22 cells from t-BuOOH |
| menaquinones [VK2, reference compound] | – | – | – | – | – | – | – | – | – | capable of protecting HT22 cells from t-BuOOH |
